From ChEMBL document CHEMBL1201862, “PubChem BioAssay data set” (2004)
The source made the active and inactive calls.

Key:
cells [1] = type: functional, cell-based
[2] = target: T1, Trace amine-associated receptor 1 (Homo sapiens, UniProt Q96RJ0); experiment: Fluorescence-based cell-based high throughput dose response assay to identify agonists of the human trace amine associated receptor 1 (TAAR1).; type: functional
T1 sequence (Q96RJ0 whole entry): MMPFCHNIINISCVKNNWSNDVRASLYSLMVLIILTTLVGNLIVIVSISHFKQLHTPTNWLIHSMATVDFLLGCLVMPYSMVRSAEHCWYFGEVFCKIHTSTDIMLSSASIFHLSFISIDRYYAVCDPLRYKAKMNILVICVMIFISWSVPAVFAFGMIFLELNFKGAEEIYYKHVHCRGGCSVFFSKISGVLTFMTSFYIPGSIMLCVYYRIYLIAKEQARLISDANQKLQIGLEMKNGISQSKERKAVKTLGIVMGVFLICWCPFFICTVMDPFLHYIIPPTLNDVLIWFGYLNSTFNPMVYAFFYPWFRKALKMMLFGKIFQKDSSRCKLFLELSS

[3] = target: T1, Trace amine-associated receptor 1; experiment: Counterscreen for agonists of the human trace amine associated receptor 1 (hTAAR1): Fluorescence-based cell-based high throughput dose response assay to identify hTAAR1 agonist that also desensitize TAAR1 receptor response.; type: functional
cells [4] = type: functional, cell-based; remark: listed apart in the source
fMet-Leu-Phe receptor = target: T2, fMet-Leu-Phe receptor (Homo sapiens, UniProt P21462); experiment: formyl peptide receptor binders – dose response (AID 519); type: functional
T2 sequence (P21462 whole entry): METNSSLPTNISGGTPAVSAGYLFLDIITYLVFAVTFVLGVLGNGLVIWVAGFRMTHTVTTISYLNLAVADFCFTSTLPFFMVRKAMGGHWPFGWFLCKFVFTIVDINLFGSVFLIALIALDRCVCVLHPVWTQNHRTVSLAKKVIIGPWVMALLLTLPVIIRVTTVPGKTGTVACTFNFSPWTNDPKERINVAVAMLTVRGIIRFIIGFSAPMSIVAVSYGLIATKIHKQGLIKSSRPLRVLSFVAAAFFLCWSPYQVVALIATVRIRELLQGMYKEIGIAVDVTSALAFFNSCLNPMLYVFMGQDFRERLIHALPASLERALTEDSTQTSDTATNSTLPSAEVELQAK

[5] = target: T3, Hepatocyte nuclear factor 4-alpha (Homo sapiens, UniProt P41235); type: functional, cell-based;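 also: biochemical luminescence-based dose-response counterscreen measuring inhibition of HNF4 dimerization, run alongside a screen for blockers of ABHD5–perilipin-5 interaction; split luciferase complementation of HNF4 fusion proteins in cell lysate measuring dimerization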
T3 sequence (P41235 whole entry): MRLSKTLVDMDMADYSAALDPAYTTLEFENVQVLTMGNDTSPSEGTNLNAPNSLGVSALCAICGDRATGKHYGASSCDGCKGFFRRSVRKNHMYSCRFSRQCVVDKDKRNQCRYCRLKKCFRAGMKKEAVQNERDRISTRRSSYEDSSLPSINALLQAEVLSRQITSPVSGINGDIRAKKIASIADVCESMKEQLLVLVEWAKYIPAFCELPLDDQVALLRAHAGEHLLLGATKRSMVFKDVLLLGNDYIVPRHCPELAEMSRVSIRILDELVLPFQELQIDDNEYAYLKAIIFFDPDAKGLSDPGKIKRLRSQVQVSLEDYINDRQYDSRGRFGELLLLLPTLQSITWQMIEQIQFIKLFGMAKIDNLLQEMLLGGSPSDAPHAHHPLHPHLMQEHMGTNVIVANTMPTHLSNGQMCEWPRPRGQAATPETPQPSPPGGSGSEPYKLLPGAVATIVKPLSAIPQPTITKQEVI

[6] = target: T4, DNA repair and recombination protein RAD54-like (Homo sapiens, UniProt Q92698); experiment: RAD54 Holliday junction migration blockers – biochemical, fluorescence, cherry-picked samples, dose series, confirmation (AID 651657); type: functional
T4 sequence (Q92698 whole entry): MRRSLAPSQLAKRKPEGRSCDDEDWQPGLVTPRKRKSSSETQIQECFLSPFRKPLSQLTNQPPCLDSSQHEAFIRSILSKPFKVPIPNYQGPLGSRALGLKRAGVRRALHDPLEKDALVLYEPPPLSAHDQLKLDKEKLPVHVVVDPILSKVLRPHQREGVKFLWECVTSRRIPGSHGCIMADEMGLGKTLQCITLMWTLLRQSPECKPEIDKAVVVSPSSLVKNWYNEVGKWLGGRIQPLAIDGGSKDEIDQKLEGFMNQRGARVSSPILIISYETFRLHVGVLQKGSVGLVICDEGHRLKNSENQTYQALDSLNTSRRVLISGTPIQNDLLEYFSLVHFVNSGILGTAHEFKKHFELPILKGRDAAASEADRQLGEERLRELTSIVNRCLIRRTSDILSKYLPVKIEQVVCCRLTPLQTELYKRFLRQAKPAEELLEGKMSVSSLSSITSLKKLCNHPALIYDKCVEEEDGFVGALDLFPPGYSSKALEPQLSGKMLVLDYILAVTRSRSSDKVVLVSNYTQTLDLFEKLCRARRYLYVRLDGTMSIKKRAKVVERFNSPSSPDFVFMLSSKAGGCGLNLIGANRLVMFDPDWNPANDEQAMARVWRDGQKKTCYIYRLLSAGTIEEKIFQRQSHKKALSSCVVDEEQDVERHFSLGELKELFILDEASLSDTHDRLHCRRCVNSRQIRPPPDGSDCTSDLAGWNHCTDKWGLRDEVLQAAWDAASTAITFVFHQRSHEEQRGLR

[7] = target: T5, DNA repair protein RAD52 homolog (Homo sapiens, UniProt P43351); type: functional, biochemical
T5 sequence (P43351 whole entry): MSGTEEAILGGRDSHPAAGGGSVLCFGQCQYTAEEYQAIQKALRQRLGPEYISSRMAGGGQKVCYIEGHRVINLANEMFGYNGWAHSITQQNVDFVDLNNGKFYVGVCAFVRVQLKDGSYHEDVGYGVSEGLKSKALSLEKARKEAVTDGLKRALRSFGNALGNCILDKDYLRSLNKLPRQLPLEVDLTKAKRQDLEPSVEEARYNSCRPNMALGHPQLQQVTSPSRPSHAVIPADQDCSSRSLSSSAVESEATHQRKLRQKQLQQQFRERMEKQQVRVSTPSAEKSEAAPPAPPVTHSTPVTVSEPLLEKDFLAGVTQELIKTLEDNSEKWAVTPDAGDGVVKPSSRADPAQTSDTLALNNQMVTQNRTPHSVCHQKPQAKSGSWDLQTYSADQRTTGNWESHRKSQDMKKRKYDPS

Row | IC50 [5] | SMILES | IC50 (cells [1]) | EC50 [2] | IC50 [3] | EC50 (cells [4]) | also measured
1 |  | COc1cccc(C(=O)N[C@H](C(=O)N2CCC[C@H]2C(=O)NCCc2ccccc2Cl)C(C)C)c1 | > 29.9 µM (inactive) | 1.08 µM (active) | 2.22 µM (active) | > 29.9 µM (inactive) | 
2 |  | COc1ccccc1C1C(C(=O)c2ccccc2)=C(O)C(=O)N1CC(C)O (stereo not drawn) |  |  |  |  | Ki (fMet-Leu-Phe receptor): 24.6 µM (inactive)
3 | 13.5 µM (inactive) | COc1ccc(NC(=O)C(c2ccc(C#N)cc2)n2c(=O)c(-c3ccco3)nc3ccccc32)cc1 (stereo not drawn) |  |  |  |  | 
4 |  | Cc1cc(C(=O)CSc2nnnn2-c2ccccc2)c(C)n1CCc1ccccc1 | > 29.9 µM (inactive) | 3.4 µM (active) | 6.28 µM (active) | > 29.9 µM (inactive) | 
5 | 1.4 µM (active) | CC(C)(C)NC(=O)C(c1ccccc1)n1c(=O)c(-c2ccco2)nc2ccccc21 (stereo not drawn) |  |  |  |  | 
6 |  | CC(=O)Nc1cc(-c2ccc(N3CCN(C)CC3)cc2)cn2c(-c3cccc(C(C)=O)c3)cnc12 |  |  |  |  | AC50 [6]: 14.8 µM (active); AC50 [7]: 4.9 µM (active)
